Reference: US4210749A, “Substituted 1,2,4,5-tetrahydro-3H,3 benzazepines” (priority 1979, dated 1980)
Counter-ions that a name gives are not always drawn.

Legend:
[1] = Analgesic activity, hot plate method; type: in vivo
[2] = Analgesic activity, writhing method; type: in vivo
morphine analgesia = type: in vivo, rat; settings: Table II
[3] = test system: isolated segments of guinea pig ileum (acetylcholine); assay: Anticholinergic activity: block of acetylcholine in isolated segments of guinea pig ileum
[4] = test system: isolated segments of guinea pig ileum (histamine); assay: Antihistaminic activity: block of histamine in isolated segments of guinea pig ileum
[5] = I.P. symptomatology (highest tolerated dose, median lethal dose), Table IV; type: in vivo; settings: in vivo, ip; for MTD: read-out: HTD (highest tolerated dose)
sciatic block = assay: Local anesthetic sciatic block, Table IV; type: in vivo; settings: 1%
in vivo [6] = settings: po
in vivo [7] = settings: po; remark: listed apart in the source
[8] = Analgesic activity in hot plate and writhing tests, overall comparison
[9] = test system: phenylbenzoquinone writhing; assay: Phenylbenzoquinone (PBQ) writhing analgesia, Table IV; type: in vivo; settings: sc; S.C.; marked * Median effective dose
[10] = Narcotic antagonism I.P., Table IV; type: in vivo

SMILES	ED50 ([1]; ip) [mg/kg]	ED50 ([1]; po) [mg/kg]	ED50 ([2]; po) [mg/kg]	ED50 ([2]; sc) [mg/kg]	Narcotic antagonist potency relative to pentazocine (morphine analgesia)	Conc. for 50% block of Acetylcholine [3] [μg/20 ml]	Conc. for 50% block of Histamine [4] [μg/20 ml]	LD50 [5] [mg/kg]	MTD [5] [mg/kg]	Local Anesthetic Sciatic Block (sciatic block)	NOAEL (in vivo [6]) [mg/kg]	LD50 (in vivo [7]) [mg/kg]	Analgesic activity ranking [8]	Separation between effective dose and toxic or lethal doses [8]	ED50 [9] [mg/kg]	Narcotic Antagonism [10]
COc1ccc2c(c1)CCN(CCc1ccccc1)CC2 [Example 24, 7-Methoxy-3-phenethyl-1,2,4,5-tetrahydro-3H,3-benzazepine]	12	> 178	> 178	~11	about equipotent to pentazocine	74	10	> 200	> 50	Positive	178	> 1000	most active compounds	greatest separation between effective dose and toxic or lethal doses	–	–
COc1ccc2c(c1)CC(C)N(C)CC2 (stereo not drawn) [Example 39, 8-Methoxy-2,3-dimethyl-1,2,4,5-tetrahydro-3H,3-benzazepine hydrochloride]	–	–	–	–	–	–	–	~150	10	Positive	–	–	–	–	> 30	Negative
COc1ccc2c(c1)CC(C)N(CCN1CCN(c3ccccc3)CC1)CC2 (stereo not drawn) [Example 40, 8-Methoxy-2-methyl-3-[2-(4-phenyl-1-piperazinyl)-ethyl]-1,2,4,5-tetrahydro-3H,3-benzazepine dihydrochloride]	–	–	–	–	–	–	–	> 100	30	Positive	–	–	–	–	> 30	Negative
